In the supplement of paper PMC10307832:

Columns and labels:
Experiment in all cases: relative viability (nuclei count vs DMSO), 5 days (fraction); higher = more cells survive
[1] = compound: CS(=O)(=O)c1ccc(-c2cnc(N)c(C(=O)Nc3ccccc3)n2)cc1 [VE-821] + CS(=O)(=O)CCNCc1ccc(-c2ccc3ncnc(Nc4ccc(OCc5cccc(F)c5)c(Cl)c4)c3c2)o1 [Lapatinib] (partner 2 µM)
How it was run: (§1)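 Relative viability was taken as the ratio of nuclei in treated wells to nuclei in vehicle wells. Lung cancer cell lines in 1536-well plates received compounds by pin tool one day after seeding, either one drug alone or a fixed anchor-drug dose plus five library-drug doses (not always all listed) in √10 steps. Nuclei were counted on 4× images after 5 days of treatment, and values are medians of duplicate plates.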

[2] = compound: CS(=O)(=O)c1ccc(-c2cnc(N)c(C(=O)Nc3ccccc3)n2)cc1 [VE-821] + CS(=O)(=O)N1CCN(Cc2cc3nc(-c4cccc5[nH]ncc45)nc(N4CCOCC4)c3s2)CC1 [Pictilisib] (partner 1 µM)
How it was run: as §1

[3] = compound: N#CC[C@H](C1CCCC1)n1cc(-c2ncnc3[nH]ccc23)cn1 [Ruxolitinib] + CS(=O)(=O)N1CCN(Cc2cc3nc(-c4cccc5[nH]ncc45)nc(N4CCOCC4)c3s2)CC1 [Pictilisib] (partner 1 µM)
How it was run: as §1

[4] = compound: N#CC[C@H](C1CCCC1)n1cc(-c2ncnc3[nH]ccc23)cn1 [Ruxolitinib] + Nc1ncn([C@H]2C[C@H](O)[C@@H](CO)O2)c(=O)n1 [Decitabine] (partner 2 µM)
How it was run: as §1

Cell Line | relative viability ([1]; first compound 0.08 µM) | relative viability ([1]; first compound 0.253 µM) | relative viability ([1]; first compound 0.8 µM) | relative viability ([1]; first compound 2.53 µM) | relative viability ([1]; first compound 8 µM) | relative viability ([2]; first compound 0.08 µM) | relative viability ([2]; first compound 0.253 µM) | relative viability ([2]; first compound 0.8 µM) | relative viability ([2]; first compound 2.53 µM) | relative viability ([2]; first compound 8 µM) | relative viability ([3]; first compound 0.08 µM) | relative viability ([3]; first compound 0.253 µM) | relative viability ([3]; first compound 0.8 µM) | relative viability ([3]; first compound 8 µM) | relative viability ([4]; first compound 0.08 µM) | relative viability ([4]; first compound 0.253 µM) | relative viability ([4]; first compound 0.8 µM) | relative viability ([4]; first compound 2.53 µM) | relative viability ([4]; first compound 8 µM) | relative viability ([3]; first compound 2.53 µM)
NCI-H661 | 0.592 | 0.427 | 0.396 | 0.486 | 0.381 | 0.379 | 0.393 | 0.406 | 0.39 | 0.336 | 0.41 | 0.322 | 0.379 | 0.465 | 0.547 | 0.548 | 0.588 | 0.484 | 0.505 | 
NCI-H727 | 1.02 | 0.755 | 0.804 | 0.714 | 0.436 | 0.418 | 0.314 | 0.232 | 0.458 | 0.227 | 0.427 | 0.384 | 0.6 | 0.725 | 0.578 | 0.901 | 0.936 | 0.841 | 0.842 | 0.309
NCI-H838 | 1.08 | 0.99 | 0.921 | 1.11 | 0.657 | 0.436 | 0.359 | 0.496 | 0.561 | 0.557 | 0.464 | 0.433 | 0.402 | 0.278 | 0.466 | 0.437 | 0.489 | 0.351 | 0.28 | 0.24
NCI-H1355 | 1.06 | 1.05 | 0.834 | 1.07 | 0.627 | 0.431 | 0.458 | 0.411 | 0.476 | 0.32 | 0.385 | 0.391 | 0.386 | 0.352 | 0.353 | 0.376 | 0.398 | 0.326 | 0.358 | 0.329
NCI-H1395 | 0.902 | 1.15 | 0.903 | 0.987 | 0.768 | 0.568 | 0.67 | 0.652 | 0.605 | 0.599 |  | 0.553 | 0.645 | 0.601 | 0.698 | 0.697 | 0.77 | 0.69 | 0.686 | 0.584
NCI-H1437 | 0.816 | 0.71 | 0.763 | 0.871 | 0.614 | 0.448 | 0.352 | 0.458 | 0.396 | 0.3 | 0.533 | 0.351 | 0.43 | 0.397 | 0.716 | 0.623 | 0.631 | 0.634 | 0.603 | 0.429
NCI-H1650 | 0.845 | 0.749 | 0.705 | 0.757 | 0.45 | 0.677 | 0.506 | 0.57 | 0.638 | 0.499 |  | 0.608 | 0.734 | 0.645 | 0.321 | 0.338 | 0.438 | 0.418 | 0.442 | 0.551
NCI-H1651 | 0.93 | 0.815 | 0.785 | 1.04 | 0.74 | 0.648 | 0.584 | 0.602 | 0.557 | 0.585 | 0.742 | 0.599 | 0.727 | 0.664 | 0.514 | 0.604 | 0.624 | 0.438 | 0.655 | 0.477
